Twelve compounds from patent US20080188528A1, “Modulators of C3a receptor and methods of use thereof” (priority 2006, published 2008) can be followed below.

The test has as its target T1, human C3a receptor (C3aR) (Homo sapiens, UniProt Q16581).
T1 construct: expressed in transfected cells
T1 sequence (Q16581 1-482): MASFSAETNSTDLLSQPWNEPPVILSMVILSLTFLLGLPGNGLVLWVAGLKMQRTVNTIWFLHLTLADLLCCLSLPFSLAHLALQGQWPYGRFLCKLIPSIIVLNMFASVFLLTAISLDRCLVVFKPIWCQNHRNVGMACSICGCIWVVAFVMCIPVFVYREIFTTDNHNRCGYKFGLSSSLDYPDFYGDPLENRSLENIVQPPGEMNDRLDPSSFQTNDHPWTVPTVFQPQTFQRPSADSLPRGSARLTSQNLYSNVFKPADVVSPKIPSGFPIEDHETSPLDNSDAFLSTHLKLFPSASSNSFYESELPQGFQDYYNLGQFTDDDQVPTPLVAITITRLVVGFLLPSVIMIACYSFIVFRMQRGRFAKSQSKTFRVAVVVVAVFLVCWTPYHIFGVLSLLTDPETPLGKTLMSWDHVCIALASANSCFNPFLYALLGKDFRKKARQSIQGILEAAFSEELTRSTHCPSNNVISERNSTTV
The test is described as follows: Inhibition of human [125I]-C3a binding to human C3a receptor (SPA, membranes of HEK293 cells expressing recombinant C3aR). The following applies: 0.1 nM [125I]-C3a, 3 hours at room temperature. In a few lines:
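HEK293 C3aR membranes were pre-coupled to WGA SPA beads and incubated 3 h at room temperature with 0.1 nM [125I]-C3a in HEPES pH 7.4 buffer containing 0.25% BSA and 0.2% CHAPS, DMSO ≤1%. Nonspecific binding was defined with 1 μM unlabeled C3a. IC50 came from nonlinear least-squares fitting.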

SMILES strings stand for the structures. pIC50: −log10 of the molar value. Structures can show the parent of a compound that is named as a salt.

Take `Cc1cc(Cc2ccccc2)c(=O)n(CC(=O)N[C@@H](CCCNC(=N)N)C(=O)O)c1` [Compound 84, (2S)-2-{[(3-benzyl-5-methyl-2-oxopyridin-1(2H)-yl)acetyl]amino}-5-carbamimidamidopentanoic acid•TFA]: the pIC50 (Table 5) was 4.70 to 6.30.
For `O=C(N[C@@H](Cc1c[nH]cn1)C(=O)O)c1cccn(C(c2ccccc2)c2ccccc2)c1=O` [Compound 85, (2S)-2-({[1-(diphenylmethyl)-2-oxo-1,2-dihydropyridin-3-yl]carbonyl}amino)-3-(1H-imidazol-4-yl)propanoic acid•TFA], the pIC50 (Table 5) was 6.30 to 7.30.
With `CC(=N)NCCC[C@H](NC(=O)c1cccn(C(c2ccccc2)c2ccccc2)c1=O)C(=O)O` [Compound 86, (2S)-2-({[1-(diphenylmethyl)-2-oxo-1,2-dihydropyridin-3-yl]carbonyl}amino)-5-(ethanimidoylamino)pentanoic acid•TFA], the pIC50 (Table 6) is greater than 7.30.
The same measure, in the same setting: for `N=C(N)NCCCC[C@H](NC(=O)c1cccn(C(c2ccccc2)c2ccccc2)c1=O)C(=O)O` [Compound 87, (2S)-6-Carbamimidamido-2-({[1-(diphenylmethyl)-2-oxo-1,2-dihydropyridin-3-yl]carbonyl}amino)hexanoic acid] the value was greater than 7.30; for `CC(=N)NCCCC[C@H](NC(=O)c1cccn(C(c2ccccc2)c2ccccc2)c1=O)C(=O)O` [Compound 88, (2S)-2-({[1-(diphenylmethyl)-2-oxo-1,2-dihydropyridin-3-yl]carbonyl}amino)-6-(ethanimidoylamino)hexanoic acid•TFA], 6.30 to 7.30.
The same measure, in the same setting: with `N=C(N)NCCC[C@@H](CC(=O)O)NC(=O)c1cccn(C(c2ccccc2)c2ccccc2)c1=O` [Compound 89, (3S)-6-Carbamimidamido-3-({[1-(diphenylmethyl)-2-oxo-1,2-dihydropyridin-3-yl]carbonyl}amino)hexanoic acid] the figure was greater than 7.30.
Same read-out and setting: with `CC(C)(C)Cn1cccc(C(=O)N[C@@H](CCCNC(=N)N)C(=O)O)c1=O` [Compound 90, (2S)-5-carbamimidamido-2-({[1-(2,2-dimethylpropyl)-2-oxo-1,2-dihydropyridin-3-yl]carbonyl}amino)pentanoic acid•TFA] the figure was greater than 7.30; with `CC(=O)NCCC[C@H](NC(=O)c1cccn(C(c2ccccc2)c2ccccc2)c1=O)C(=O)O` [Compound 91, (2S)-5-(Acetylamino)-2-({[1-(diphenylmethyl)-2-oxo-1,2-dihydropyridin-3-yl]carbonyl}amino)pentanoic acid], 6.30 to 7.30; with `N/C(=N\O)NCCC[C@H](NC(=O)c1cccn(C(c2ccccc2)c2ccccc2)c1=O)C(=O)O` [Compound 92, (2S)-2-({[1-(Diphenylmethyl)-2-oxo-1,2-dihydropyridin-3-yl]carbonyl}amino)-5-(hydroxycarb-amimidamido)pentanoicacid], greater than 7.30.
Turning to `CC(C)/N=C(\NCCC[C@H](NC(=O)c1cccn(C(c2ccccc2)c2ccccc2)c1=O)C(=O)O)NC(C)C` [Compound 93, (2S)-5-({Bis[(1-methylethyl)amino]methylidene}amino)-2-({[1-(diphenylmethyl)-2-oxo-1,2-dihydropyridin-3-yl]carbonyl}amino)pentanoic acid], the pIC50 (Table 6) was 6.30 to 7.30.
Same read-out and setting: for `CC(=N)NCC[C@H](NC(=O)c1cccn(C(c2ccccc2)c2ccccc2)c1=O)C(=O)O` [Compound 94, (2S)-2-({[1-(diphenylmethyl)-2-oxo-1,2-dihydropyridin-3-yl]carbonyl}amino)-4-(ethanimidoylamino)butanoic acid•TFA] the value was 6.30 to 7.30; for `CCN(CC)CCC[C@H](NC(=O)c1cccn(C(c2ccccc2)c2ccccc2)c1=O)C(=O)O` [Compound 95, (2S)-5-(Diethylamino)-2-({[1-(diphenylmethyl)-2-oxo-1,2-dihydropyridin-3-yl]carbonyl}amino)pentanoic acid], greater than 7.30.
